# Laboratory results: ChEMBL document CHEMBL2074487, “Effects of 12 Ca2+ antagonists on multidrug resistance, MDR1-mediated transport and MDR1 mRNA expression” (Eur J Pharm Sci, 2002)
# Target: ATP-dependent translocase ABCB1 (Homo sapiens, UniProt P08183)
# Test: TP_TRANSPORTER: inhibition of Digoxin transepithelial transport (basal to apical) (Digoxin: 0.1 uM) in MDR1-expressing LLC-PK1 cells
# Assay type: functional, cell-based
# Chain of ATP-dependent translocase ABCB1 (P08183 whole entry): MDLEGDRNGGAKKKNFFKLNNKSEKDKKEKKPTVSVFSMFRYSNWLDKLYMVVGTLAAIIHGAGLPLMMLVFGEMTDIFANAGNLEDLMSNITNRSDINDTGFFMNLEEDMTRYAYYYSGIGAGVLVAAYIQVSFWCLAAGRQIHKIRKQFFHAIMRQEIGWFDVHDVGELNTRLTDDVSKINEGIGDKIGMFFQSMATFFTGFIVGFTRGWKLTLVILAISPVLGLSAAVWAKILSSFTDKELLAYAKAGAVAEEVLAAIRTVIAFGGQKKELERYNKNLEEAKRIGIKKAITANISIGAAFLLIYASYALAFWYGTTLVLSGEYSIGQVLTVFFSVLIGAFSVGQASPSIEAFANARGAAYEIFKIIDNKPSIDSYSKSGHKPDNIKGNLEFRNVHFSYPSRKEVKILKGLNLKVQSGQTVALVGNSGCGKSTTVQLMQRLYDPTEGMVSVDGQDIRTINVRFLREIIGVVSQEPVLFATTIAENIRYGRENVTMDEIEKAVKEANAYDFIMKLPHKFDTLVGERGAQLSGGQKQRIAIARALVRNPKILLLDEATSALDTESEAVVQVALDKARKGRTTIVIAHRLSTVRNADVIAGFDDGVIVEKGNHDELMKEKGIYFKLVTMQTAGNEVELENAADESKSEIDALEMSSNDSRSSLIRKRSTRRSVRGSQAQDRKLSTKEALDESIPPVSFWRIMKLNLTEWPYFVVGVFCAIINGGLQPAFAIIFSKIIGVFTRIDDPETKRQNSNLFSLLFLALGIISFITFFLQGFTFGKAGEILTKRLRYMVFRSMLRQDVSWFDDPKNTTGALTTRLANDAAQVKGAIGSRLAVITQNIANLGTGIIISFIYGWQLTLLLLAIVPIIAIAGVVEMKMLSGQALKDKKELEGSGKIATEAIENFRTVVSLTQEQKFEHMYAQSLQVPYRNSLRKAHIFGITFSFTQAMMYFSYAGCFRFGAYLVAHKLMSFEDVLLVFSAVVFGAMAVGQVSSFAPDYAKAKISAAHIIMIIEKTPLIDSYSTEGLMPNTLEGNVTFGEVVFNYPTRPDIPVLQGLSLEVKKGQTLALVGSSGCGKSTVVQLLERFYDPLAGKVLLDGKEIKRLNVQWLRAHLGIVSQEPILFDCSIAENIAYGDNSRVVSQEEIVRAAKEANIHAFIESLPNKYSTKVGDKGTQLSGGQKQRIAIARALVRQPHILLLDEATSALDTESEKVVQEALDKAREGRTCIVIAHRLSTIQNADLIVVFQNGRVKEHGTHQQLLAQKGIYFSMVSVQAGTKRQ
row,IC50,Compound
1,44.1 µM,COC(=O)C1=C(C)NC(C)=C(C(=O)OCC(C)C)C1c1ccccc1[N+](=O)[O-] (configuration not stated) [NISOLDIPINE]
2,4.96 µM,COC(=O)C1=C(C)NC(C)=C(C(=O)O[C@@H]2CCCN(Cc3ccccc3)C2)C1c1cccc([N+](=O)[O-])c1 (some centres not stated)
3,13 µM,CC1=C(C(=O)OCCN(Cc2ccccc2)c2ccccc2)C(c2cccc([N+](=O)[O-])c2)C(P2(=O)OCC(C)(C)CO2)=C(C)N1 (configuration not stated) [EFONIDIPINE]
4,12.6 µM,COC(=O)C1=C(C)NC(C)=C(C(=O)O[C@H]2CCN(Cc3ccccc3)C2)[C@H]1c1cccc([N+](=O)[O-])c1 [BARNIDIPINE]
5,68.2 µM,CCOC(=O)C1=C(C)NC(C)=C(C(=O)OC)C1c1cccc([N+](=O)[O-])c1 (configuration not stated) [NITRENDIPINE]
6,18 µM,COC(=O)C1=C(C#N)NC(C)=C(C(=O)OC(C)C)C1c1cccc([N+](=O)[O-])c1 (configuration not stated) [NILVADIPINE]

row,Compound,IC50
1,COC(=O)C1=C(C)NC(C)=C(C(=O)OC)C1c1ccccc1[N+](=O)[O-] [NIFEDIPINE],472 µM
